Results from the NIST ThermoML archive (doi:10.1021/je700260f).

Settings: 323.14 K, Liquid, Vibrating tube method

FC(C(F)(F)F)C(F)(F)F [1,1,1,2,3,3,3-heptafluoropropane]
Settings | mass density [kg/m3]
18469 kPa | 1413.4
18489 kPa | 1413.6
18518 kPa | 1413.8
18639 kPa | 1414.5
18664 kPa | 1414.6
18688 kPa | 1414.7
18713 kPa | 1414.8
18738 kPa | 1414.8
18764 kPa | 1415.1
18787 kPa | 1415.1
18806 kPa | 1415.3
18836 kPa | 1415.4
19030 kPa | 1416.6
19049 kPa | 1416.5
19073 kPa | 1416.7
19091 kPa | 1416.8
19111 kPa | 1416.8
19136 kPa | 1416.9
19224 kPa | 1417.4
19244 kPa | 1417.5
19276 kPa | 1417.6
19303 kPa | 1417.9
19335 kPa | 1418
19359 kPa | 1418.1
19382 kPa | 1418.2
19410 kPa | 1418.4
19431 kPa | 1418.5
19452 kPa | 1418.4
19473 kPa | 1418.7
19509 kPa | 1418.8
19534 kPa | 1419.1
19563 kPa | 1419.2
19591 kPa | 1419.1
19608 kPa | 1419.2
19637 kPa | 1419.5
19667 kPa | 1419.6
19693 kPa | 1419.8
19721 kPa | 1419.9
19746 kPa | 1419.9
19771 kPa | 1420
19795 kPa | 1420.5
19830 kPa | 1420.4
19857 kPa | 1420.6
19893 kPa | 1420.7
19917 kPa | 1420.9
19942 kPa | 1421.1
19968 kPa | 1421.2
19996 kPa | 1421.3
20014 kPa | 1421.4
20047 kPa | 1421.4
20075 kPa | 1421.5
20101 kPa | 1421.8
20124 kPa | 1421.9
20452 kPa | 1423.5
20511 kPa | 1423.8
20538 kPa | 1423.8
20571 kPa | 1424.1
20600 kPa | 1424.3
20632 kPa | 1424.4
20657 kPa | 1424.6
20681 kPa | 1424.6
20715 kPa | 1424.8
20735 kPa | 1424.9
20759 kPa | 1425
20780 kPa | 1425.1
20814 kPa | 1425.2
20837 kPa | 1425.4
20864 kPa | 1425.5
20891 kPa | 1425.6
20919 kPa | 1425.8
20943 kPa | 1425.8
20963 kPa | 1426
20994 kPa | 1426.2
21021 kPa | 1426.3
21041 kPa | 1426.4
21069 kPa | 1426.5
21100 kPa | 1426.5
21124 kPa | 1426.7
21151 kPa | 1426.8
21174 kPa | 1427
21195 kPa | 1427.2
21219 kPa | 1427.1
21243 kPa | 1427.2
21271 kPa | 1427.4
21296 kPa | 1427.5
21318 kPa | 1427.7
21353 kPa | 1427.8
21376 kPa | 1428.1
21404 kPa | 1428.1
21424 kPa | 1428.1
21456 kPa | 1428.3
21478 kPa | 1428.4
21511 kPa | 1428.6
21546 kPa | 1428.8
21572 kPa | 1428.9
21597 kPa | 1429
21630 kPa | 1429.1
21660 kPa | 1429.3
21684 kPa | 1429.4
21712 kPa | 1429.4
21734 kPa | 1429.6
22001 kPa | 1430.9
22031 kPa | 1431
22058 kPa | 1431.1
22088 kPa | 1431.3
22114 kPa | 1431.5
22137 kPa | 1431.4
22174 kPa | 1431.7
22209 kPa | 1431.8
22233 kPa | 1432
22272 kPa | 1432.1
22308 kPa | 1432.2
22334 kPa | 1432.5
22366 kPa | 1432.6
22390 kPa | 1432.7
22418 kPa | 1432.7
22439 kPa | 1432.9
22462 kPa | 1433.1
22489 kPa | 1433.2
22513 kPa | 1433.3
22533 kPa | 1433.3
22571 kPa | 1433.6
22602 kPa | 1433.6
22627 kPa | 1433.8
22657 kPa | 1434
22685 kPa | 1434.1
22721 kPa | 1434.2
22744 kPa | 1434.3
22777 kPa | 1434.5
22801 kPa | 1434.6
22825 kPa | 1434.6
22862 kPa | 1434.8
22889 kPa | 1435
22927 kPa | 1435.2
22962 kPa | 1435.2
23026 kPa | 1435.6
23049 kPa | 1435.7
23075 kPa | 1435.7
23101 kPa | 1436
23130 kPa | 1436.1
23163 kPa | 1436.3
23185 kPa | 1436.3
23221 kPa | 1436.4
23254 kPa | 1436.5
23276 kPa | 1436.7
23305 kPa | 1436.8
23328 kPa | 1437
23354 kPa | 1437.1
23380 kPa | 1437.2
23402 kPa | 1437.2
23428 kPa | 1437.5
23454 kPa | 1437.5
23484 kPa | 1437.7
23510 kPa | 1437.7
23538 kPa | 1437.9
23560 kPa | 1438
23587 kPa | 1438.1
23609 kPa | 1438.2
23776 kPa | 1439
23810 kPa | 1439
23832 kPa | 1439.2
23865 kPa | 1439.2
23891 kPa | 1439.5
23918 kPa | 1439.6
23949 kPa | 1439.6
23975 kPa | 1439.9
23998 kPa | 1439.9
24025 kPa | 1440
24056 kPa | 1440
24079 kPa | 1440.3
24109 kPa | 1440.4
24134 kPa | 1440.5
24156 kPa | 1440.7
24187 kPa | 1440.7
24223 kPa | 1440.9
24254 kPa | 1441.1
24277 kPa | 1441.2
24304 kPa | 1441.1
24342 kPa | 1441.4
24400 kPa | 1441.5
24420 kPa | 1441.7
24564 kPa | 1442.3
24596 kPa | 1442.6
24658 kPa | 1442.8
24699 kPa | 1443
24727 kPa | 1443.1
24768 kPa | 1443.2
24794 kPa | 1443.4
24828 kPa | 1443.6
24859 kPa | 1443.8
24889 kPa | 1443.8
24914 kPa | 1444
24955 kPa | 1444.1
24984 kPa | 1444.1
25017 kPa | 1444.3
25047 kPa | 1444.4
25081 kPa | 1444.7
25116 kPa | 1444.8
25141 kPa | 1445
25410 kPa | 1446.1
25440 kPa | 1446.3
25947 kPa | 1448.3
25974 kPa | 1448.4
26063 kPa | 1448.8
26227 kPa | 1449.5
26309 kPa | 1449.7
